Data taken from ChEMBL document CHEMBL1201862, “PubChem BioAssay data set” (2004).
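Step 1: Grow cells in 96-well plates. Step 2: Expose to compound for 48 hours at 5 concentrations. Step 3: Interpolate endpoints linearly; if unreached, use highest concentration. The concentration for 50% growth inhibition is given as GI50.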 The source made the active and inactive calls. Cut-off read from the data, not from the text of the source: active = GI50 up to about 1.1 µM and inactive = higher.

Key:
Assay in all cases: growth of human tumour cells (NCI), 48 h
OVCAR-4 = test system: OVCAR-4
NCI-H23 = test system: NCI-H23
SR = test system: SR
RXF 393 = test system: RXF 393
U-251 = test system: U-251
NCI-H226 = test system: NCI-H226
OVCAR-5 = test system: OVCAR-5
SK-MEL-5 = test system: SK-MEL-5
Malme-3M = test system: Malme-3M
HL-60 = test system: HL-60
SW-620 = test system: SW-620
SN12C = test system: SN12C
HCC 2998 = test system: HCC 2998
UACC-62 = test system: UACC-62
SNB-75 = test system: SNB-75
SK-MEL-2 = test system: SK-MEL-2
HCT-15 = test system: HCT-15
CCRF-CEM = test system: CCRF-CEM
MDA-MB-231 = test system: MDA-MB-231
Hs-578T = test system: Hs-578T

Q: How did the GI50 (OVCAR-4) turn out when O=S(=O)(O)CS(=O)(=O)OCCCl was run?
A: > 100 µM (inactive)

Q: What about the GI50 (NCI-H23) of the same compound?
A: > 100 µM (inactive)

Q: What about the GI50 (SR) of the same compound?
A: > 100 µM (inactive)

Q: And the GI50 (RXF 393)?
A: > 100 µM (inactive)

Q: What about the GI50 (U-251) of the same compound?
A: > 100 µM (inactive)

Q: And the GI50 (NCI-H226)?
A: > 100 µM (inactive)

Q: What about the GI50 (OVCAR-5) of the same compound?
A: > 100 µM (inactive)

Q: And the GI50 (SK-MEL-5)?
A: > 100 µM (inactive)

Q: What about the GI50 (Malme-3M) of the same compound?
A: > 100 µM (inactive)

Q: What about the GI50 (HL-60) of the same compound?
A: > 100 µM (inactive)

Q: What about the GI50 (SW-620) of the same compound?
A: > 100 µM (inactive)

Q: What about the GI50 (SN12C) of the same compound?
A: > 100 µM (inactive)

Q: What about the GI50 (HCC 2998) of the same compound?
A: > 100 µM (inactive)

Q: What about the GI50 (UACC-62) of the same compound?
A: > 100 µM (inactive)

Q: And the GI50 (SNB-75)?
A: > 100 µM (inactive)

Q: What does the source list for COC(=O)[C@@]12CCCC(=O)[C@@H]1[C@H]1CCC[C@H]12?
A: GI50 (SK-MEL-2): > 100 µM (inactive); GI50 (OVCAR-4): > 100 µM (inactive); GI50 (NCI-H23): > 100 µM (inactive); GI50 (HCT-15): > 100 µM; GI50 (CCRF-CEM): > 100 µM (inactive); GI50 (SR): > 100 µM (inactive); GI50 (RXF 393): > 100 µM (inactive); GI50 (U-251): > 100 µM (inactive); GI50 (NCI-H226): > 100 µM (inactive); GI50 (MDA-MB-231): > 100 µM (inactive); GI50 (OVCAR-5): > 100 µM (inactive); GI50 (SK-MEL-5): > 100 µM (inactive); GI50 (Malme-3M): > 100 µM (inactive); GI50 (SW-620): > 100 µM (inactive); GI50 (SN12C): > 100 µM (inactive); GI50 (HCC 2998): > 100 µM (inactive); GI50 (UACC-62): > 100 µM (inactive); GI50 (SNB-75): > 100 µM (inactive)

Q: Which results are given for CO/C(=N\N=C\c1ccc(Cl)cc1Cl)c1ccncc1?
A: GI50 (SK-MEL-2): > 10 µM (inactive); GI50 (OVCAR-4): > 10 µM (inactive); GI50 (NCI-H23): > 10 µM (inactive); GI50 (HCT-15): > 10 µM; GI50 (CCRF-CEM): > 10 µM (inactive); GI50 (SR): > 10 µM (inactive); GI50 (RXF 393): > 10 µM (inactive); GI50 (U-251): > 10 µM (inactive); GI50 (NCI-H226): > 10 µM (inactive); GI50 (MDA-MB-231): > 10 µM (inactive); GI50 (OVCAR-5): > 10 µM (inactive); GI50 (Malme-3M): > 10 µM (inactive); GI50 (HL-60): > 10 µM (inactive); GI50 (SW-620): > 10 µM (inactive); GI50 (SN12C): > 10 µM (inactive)

Q: Which GI50 (OVCAR-4) does the source give for COc1ccc(/C(Cl)=C/c2ccc(Cl)c(Cl)c2)cc1 here?
A: 41.5 µM (inactive)

Q: What about the GI50 (NCI-H23) of the same compound?
A: 19 µM (inactive)

Q: And the GI50 (HCT-15)?
A: 23.1 µM

Q: And the GI50 (CCRF-CEM)?
A: 21.9 µM (inactive)

Q: And the GI50 (SR)?
A: 18.9 µM (inactive)

Q: And the GI50 (RXF 393)?
A: 15.2 µM (inactive)

Q: What about the GI50 (U-251) of the same compound?
A: 21.5 µM (inactive)

Q: And the GI50 (NCI-H226)?
A: 14.9 µM (inactive)

Q: What about the GI50 (SK-MEL-5) of the same compound?
A: 18 µM (inactive)

Q: And the GI50 (Malme-3M)?
A: 20.9 µM (inactive)

Q: What about the GI50 (HL-60) of the same compound?
A: 17.3 µM (inactive)

Q: And the GI50 (SW-620)?
A: 43.2 µM (inactive)

Q: What about the GI50 (SN12C) of the same compound?
A: 29.4 µM (inactive)

Q: And the GI50 (HCC 2998)?
A: 19.8 µM (inactive)

Q: What about the GI50 (UACC-62) of the same compound?
A: 24.3 µM (inactive)

Q: What about the GI50 (SNB-75) of the same compound?
A: 28.5 µM (inactive)

Q: Which results are given for c1ccc(-c2nnc(CCCCCCCCc3nnc(-c4ccccc4)o3)o2)cc1?
A: GI50 (SK-MEL-2): > 100 µM (inactive); GI50 (OVCAR-4): > 100 µM (inactive); GI50 (NCI-H23): > 100 µM (inactive); GI50 (HCT-15): > 100 µM; GI50 (CCRF-CEM): 52.5 µM (inactive); GI50 (U-251): 53 µM (inactive); GI50 (NCI-H226): > 100 µM (inactive); GI50 (MDA-MB-231): 12.2 µM (inactive); GI50 (OVCAR-5): > 100 µM (inactive); GI50 (SK-MEL-5): > 100 µM (inactive); GI50 (Malme-3M): > 100 µM (inactive); GI50 (HL-60): 30.6 µM (inactive); GI50 (SW-620): > 100 µM (inactive); GI50 (SN12C): > 100 µM (inactive); GI50 (HCC 2998): < 0.01 µM (active); GI50 (SNB-75): > 100 µM (inactive)

Q: For CC1(SCC(N)C(=O)O)CC(=O)NC1=O (stereo unspecified), which GI50 (SK-MEL-2) is on record?
A: > 100 µM (inactive)

Q: And the GI50 (OVCAR-4)?
A: > 100 µM (inactive)

Q: What about the GI50 (NCI-H23) of the same compound?
A: > 100 µM (inactive)

Q: And the GI50 (HCT-15)?
A: > 100 µM

Q: What about the GI50 (CCRF-CEM) of the same compound?
A: > 100 µM (inactive)

Q: And the GI50 (SR)?
A: > 100 µM (inactive)

Q: What about the GI50 (RXF 393) of the same compound?
A: > 100 µM (inactive)

Q: What about the GI50 (U-251) of the same compound?
A: > 100 µM (inactive)

Q: And the GI50 (NCI-H226)?
A: > 100 µM (inactive)

Q: And the GI50 (SK-MEL-5)?
A: > 100 µM (inactive)

Q: And the GI50 (HL-60)?
A: > 100 µM (inactive)

Q: What about the GI50 (SW-620) of the same compound?
A: > 100 µM (inactive)

Q: And the GI50 (SN12C)?
A: > 100 µM (inactive)

Q: What about the GI50 (HCC 2998) of the same compound?
A: > 100 µM (inactive)

Q: And the GI50 (UACC-62)?
A: > 100 µM (inactive)

Q: What about the GI50 (SNB-75) of the same compound?
A: > 100 µM (inactive)

Q: Which GI50 (SK-MEL-2) does the source give for Cc1c(-c2ccc(O)c(O)c2)oc(=O)c2c(O)cccc12 here?
A: 13.1 µM (inactive)

Q: What about the GI50 (Hs-578T) of the same compound?
A: 3.03 µM (inactive)

Q: What about the GI50 (OVCAR-4) of the same compound?
A: 11.7 µM (inactive)

Q: What about the GI50 (NCI-H23) of the same compound?
A: 10.3 µM (inactive)

Q: And the GI50 (HCT-15)?
A: 3.96 µM

Q: And the GI50 (CCRF-CEM)?
A: 3.08 µM (inactive)

Q: And the GI50 (RXF 393)?
A: 12.4 µM (inactive)

Q: And the GI50 (U-251)?
A: 12.1 µM (inactive)

Q: And the GI50 (OVCAR-5)?
A: 14.8 µM (inactive)

Q: What about the GI50 (SK-MEL-5) of the same compound?
A: 10.4 µM (inactive)

Q: And the GI50 (Malme-3M)?
A: 13.3 µM (inactive)

Q: And the GI50 (HL-60)?
A: 3.88 µM (inactive)

Q: And the GI50 (SW-620)?
A: 12.2 µM (inactive)

Q: And the GI50 (SN12C)?
A: 5.27 µM (inactive)

Q: What about the GI50 (HCC 2998) of the same compound?
A: 10.4 µM (inactive)

Q: What about the GI50 (SNB-75) of the same compound?
A: 13.3 µM (inactive)

Q: Which GI50 (OVCAR-4) does the source give for CO/N=C(\C(=O)Nn1cn[n+](CC(=O)[O-])c1)c1csc(N)n1 here?
A: > 10 µM (inactive)

Q: What about the GI50 (NCI-H23) of the same compound?
A: > 10 µM (inactive)

Q: What about the GI50 (HCT-15) of the same compound?
A: > 10 µM

Q: What about the GI50 (CCRF-CEM) of the same compound?
A: > 10 µM (inactive)

Q: And the GI50 (SR)?
A: > 10 µM (inactive)

Q: What about the GI50 (MDA-MB-231) of the same compound?
A: > 10 µM (inactive)

Q: And the GI50 (SK-MEL-5)?
A: > 10 µM (inactive)

Q: What about the GI50 (HL-60) of the same compound?
A: > 10 µM (inactive)

Q: What about the GI50 (SW-620) of the same compound?
A: > 10 µM (inactive)

Q: And the GI50 (SN12C)?
A: > 10 µM (inactive)

Q: What about the GI50 (HCC 2998) of the same compound?
A: > 10 µM (inactive)

Q: What about the GI50 (UACC-62) of the same compound?
A: > 10 µM (inactive)

Q: What about the GI50 (SNB-75) of the same compound?
A: 9.25 µM (inactive)

Q: Which GI50 (SK-MEL-2) does the source give for COc1ccc(CNc2nc(NCc3ccc(OC)cc3)nc(NC(C)C)n2)cc1 here?
A: 6.5 µM (inactive)

Q: And the GI50 (Hs-578T)?
A: 13.5 µM (inactive)

Q: And the GI50 (OVCAR-4)?
A: 20.3 µM (inactive)

Q: What about the GI50 (NCI-H23) of the same compound?
A: 5.21 µM (inactive)

Q: And the GI50 (HCT-15)?
A: 4.12 µM

Q: And the GI50 (SR)?
A: 3.84 µM (inactive)

Q: And the GI50 (RXF 393)?
A: 7.08 µM (inactive)

Q: And the GI50 (U-251)?
A: 7.52 µM (inactive)

Q: What about the GI50 (OVCAR-5) of the same compound?
A: 20.2 µM (inactive)

Q: What about the GI50 (SK-MEL-5) of the same compound?
A: 4.85 µM (inactive)

Q: What about the GI50 (Malme-3M) of the same compound?
A: 5 µM (inactive)

Q: And the GI50 (HL-60)?
A: 4.08 µM (inactive)

Q: And the GI50 (SW-620)?
A: 4.22 µM (inactive)

Q: What about the GI50 (HCC 2998) of the same compound?
A: 28.6 µM (inactive)

Q: What about the GI50 (UACC-62) of the same compound?
A: 4.28 µM (inactive)

Q: What about the GI50 (SNB-75) of the same compound?
A: 7.08 µM (inactive)
